Experimental data reported in article PMC4286029 (Inflammation Research, 2014).

How the values were obtained:
[1] = target: T1, Tie2 (Homo sapiens, UniProt Q02763); experiment: KinaseProfiler selectivity: Tie2; assay type: biochemical
T1 construct: purchased Millipore Co. Ltd. (KinaseProfiler service)
Description: (§1) […]; The selectivity of JTE-052 for other kinases was assessed using KinaseProfiler™ (Millipore Co. Ltd.). […].

[2] = target: T2, IGF-1R (Homo sapiens, UniProt P08069); experiment: KinaseProfiler selectivity: IGF-1R; assay type: biochemical
T2 construct: purchased Millipore Co. Ltd. (KinaseProfiler service)
T2 sequence (P08069 31-1367, species assumed): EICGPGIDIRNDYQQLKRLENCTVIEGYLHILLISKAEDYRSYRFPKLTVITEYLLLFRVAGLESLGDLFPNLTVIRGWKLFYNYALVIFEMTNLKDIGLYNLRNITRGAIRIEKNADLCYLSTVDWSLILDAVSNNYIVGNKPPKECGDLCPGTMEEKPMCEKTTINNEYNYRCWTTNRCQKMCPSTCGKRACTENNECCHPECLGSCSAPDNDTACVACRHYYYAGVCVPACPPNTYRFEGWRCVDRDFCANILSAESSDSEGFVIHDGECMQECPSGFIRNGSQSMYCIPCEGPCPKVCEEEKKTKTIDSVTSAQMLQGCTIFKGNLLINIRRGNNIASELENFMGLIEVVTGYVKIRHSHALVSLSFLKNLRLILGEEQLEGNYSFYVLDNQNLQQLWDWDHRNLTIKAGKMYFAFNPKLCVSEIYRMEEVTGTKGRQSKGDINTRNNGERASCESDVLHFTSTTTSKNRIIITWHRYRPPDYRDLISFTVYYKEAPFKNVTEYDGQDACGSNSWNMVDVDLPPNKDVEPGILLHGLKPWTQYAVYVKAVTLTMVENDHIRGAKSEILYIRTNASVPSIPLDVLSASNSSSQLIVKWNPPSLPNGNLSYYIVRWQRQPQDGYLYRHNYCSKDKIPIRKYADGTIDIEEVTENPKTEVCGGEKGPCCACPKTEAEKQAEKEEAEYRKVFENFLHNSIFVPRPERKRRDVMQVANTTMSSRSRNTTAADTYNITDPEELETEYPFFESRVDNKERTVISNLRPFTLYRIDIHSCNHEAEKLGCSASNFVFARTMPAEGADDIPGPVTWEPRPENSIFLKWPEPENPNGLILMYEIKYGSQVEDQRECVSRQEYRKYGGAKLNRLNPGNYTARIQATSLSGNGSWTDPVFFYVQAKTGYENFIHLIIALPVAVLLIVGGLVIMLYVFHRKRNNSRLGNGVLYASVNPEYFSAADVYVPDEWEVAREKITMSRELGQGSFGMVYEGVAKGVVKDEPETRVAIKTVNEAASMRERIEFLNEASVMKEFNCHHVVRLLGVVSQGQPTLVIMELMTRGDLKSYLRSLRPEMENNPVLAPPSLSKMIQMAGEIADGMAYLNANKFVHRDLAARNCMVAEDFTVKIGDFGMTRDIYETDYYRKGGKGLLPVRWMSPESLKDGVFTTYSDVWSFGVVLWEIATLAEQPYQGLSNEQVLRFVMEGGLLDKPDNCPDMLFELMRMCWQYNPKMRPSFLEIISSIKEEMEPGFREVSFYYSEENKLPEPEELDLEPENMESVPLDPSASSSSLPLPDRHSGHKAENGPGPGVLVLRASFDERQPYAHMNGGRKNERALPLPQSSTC
Description: as §1

[3] = target: T3, PDK1 (Homo sapiens, UniProt O15530); experiment: KinaseProfiler selectivity: PDK1; assay type: biochemical
T3 construct: purchased Millipore Co. Ltd. (KinaseProfiler service)
Description: as §1

[4] = target: T4, cKit (Homo sapiens, UniProt P10721); experiment: KinaseProfiler selectivity: cKit; assay type: biochemical
T4 construct: purchased Millipore Co. Ltd. (KinaseProfiler service)
T4 sequence (P10721 26-976): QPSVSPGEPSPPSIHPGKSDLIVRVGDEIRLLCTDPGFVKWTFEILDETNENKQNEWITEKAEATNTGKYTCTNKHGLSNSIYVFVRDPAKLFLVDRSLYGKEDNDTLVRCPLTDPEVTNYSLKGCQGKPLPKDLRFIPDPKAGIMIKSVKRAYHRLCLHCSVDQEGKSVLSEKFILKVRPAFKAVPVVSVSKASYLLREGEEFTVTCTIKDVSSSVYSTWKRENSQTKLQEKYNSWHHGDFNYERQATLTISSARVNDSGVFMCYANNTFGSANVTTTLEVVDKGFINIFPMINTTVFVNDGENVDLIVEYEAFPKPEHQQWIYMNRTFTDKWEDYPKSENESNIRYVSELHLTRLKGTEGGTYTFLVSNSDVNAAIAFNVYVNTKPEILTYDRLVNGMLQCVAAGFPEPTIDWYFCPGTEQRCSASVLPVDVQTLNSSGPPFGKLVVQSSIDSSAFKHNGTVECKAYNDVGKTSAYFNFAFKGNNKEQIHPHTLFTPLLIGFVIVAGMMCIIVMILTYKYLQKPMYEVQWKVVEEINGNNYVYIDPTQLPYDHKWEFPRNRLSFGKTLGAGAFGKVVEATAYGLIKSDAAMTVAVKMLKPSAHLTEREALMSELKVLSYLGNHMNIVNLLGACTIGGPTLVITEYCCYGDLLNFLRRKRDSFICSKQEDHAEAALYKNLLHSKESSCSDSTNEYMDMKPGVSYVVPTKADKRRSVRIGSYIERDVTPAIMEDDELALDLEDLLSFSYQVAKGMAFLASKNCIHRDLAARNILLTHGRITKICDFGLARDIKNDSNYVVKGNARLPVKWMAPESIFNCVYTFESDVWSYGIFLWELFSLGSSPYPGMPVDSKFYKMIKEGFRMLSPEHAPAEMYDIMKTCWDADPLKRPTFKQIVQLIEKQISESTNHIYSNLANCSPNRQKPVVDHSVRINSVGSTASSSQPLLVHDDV
Description: as §1

[5] = target: T5, FGFR1 (Homo sapiens, UniProt P11362); experiment: KinaseProfiler selectivity: FGFR1; assay type: biochemical
T5 construct: purchased Millipore Co. Ltd. (KinaseProfiler service)
Description: as §1

[6] = target: T6, CSK (Homo sapiens, UniProt P41240); experiment: KinaseProfiler selectivity: CSK; assay type: biochemical
T6 construct: purchased Millipore Co. Ltd. (KinaseProfiler service)
Description: as §1

[7] = system: human monocytes; experiment: GM-CSF-induced TNF-α production from monocytes (ELISA); settings: Monocyte, read-out: IC50, GM-CSF enhancement of TNF-α production upon LPS stimulation in monocytes
Description: The cells were then cultured with 0.1 ng/mL lipopolysaccharide (LPS) for an additional 6 h at 37 °C. The supernatants were collected, and secretion of TNF-α was measured by ELISA.

[8] = target: T7, Flt1 (Homo sapiens, UniProt P17948); experiment: KinaseProfiler selectivity: Flt1; assay type: biochemical
T7 construct: purchased Millipore Co. Ltd. (KinaseProfiler service)
T7 sequence (P17948 27-1338, species assumed): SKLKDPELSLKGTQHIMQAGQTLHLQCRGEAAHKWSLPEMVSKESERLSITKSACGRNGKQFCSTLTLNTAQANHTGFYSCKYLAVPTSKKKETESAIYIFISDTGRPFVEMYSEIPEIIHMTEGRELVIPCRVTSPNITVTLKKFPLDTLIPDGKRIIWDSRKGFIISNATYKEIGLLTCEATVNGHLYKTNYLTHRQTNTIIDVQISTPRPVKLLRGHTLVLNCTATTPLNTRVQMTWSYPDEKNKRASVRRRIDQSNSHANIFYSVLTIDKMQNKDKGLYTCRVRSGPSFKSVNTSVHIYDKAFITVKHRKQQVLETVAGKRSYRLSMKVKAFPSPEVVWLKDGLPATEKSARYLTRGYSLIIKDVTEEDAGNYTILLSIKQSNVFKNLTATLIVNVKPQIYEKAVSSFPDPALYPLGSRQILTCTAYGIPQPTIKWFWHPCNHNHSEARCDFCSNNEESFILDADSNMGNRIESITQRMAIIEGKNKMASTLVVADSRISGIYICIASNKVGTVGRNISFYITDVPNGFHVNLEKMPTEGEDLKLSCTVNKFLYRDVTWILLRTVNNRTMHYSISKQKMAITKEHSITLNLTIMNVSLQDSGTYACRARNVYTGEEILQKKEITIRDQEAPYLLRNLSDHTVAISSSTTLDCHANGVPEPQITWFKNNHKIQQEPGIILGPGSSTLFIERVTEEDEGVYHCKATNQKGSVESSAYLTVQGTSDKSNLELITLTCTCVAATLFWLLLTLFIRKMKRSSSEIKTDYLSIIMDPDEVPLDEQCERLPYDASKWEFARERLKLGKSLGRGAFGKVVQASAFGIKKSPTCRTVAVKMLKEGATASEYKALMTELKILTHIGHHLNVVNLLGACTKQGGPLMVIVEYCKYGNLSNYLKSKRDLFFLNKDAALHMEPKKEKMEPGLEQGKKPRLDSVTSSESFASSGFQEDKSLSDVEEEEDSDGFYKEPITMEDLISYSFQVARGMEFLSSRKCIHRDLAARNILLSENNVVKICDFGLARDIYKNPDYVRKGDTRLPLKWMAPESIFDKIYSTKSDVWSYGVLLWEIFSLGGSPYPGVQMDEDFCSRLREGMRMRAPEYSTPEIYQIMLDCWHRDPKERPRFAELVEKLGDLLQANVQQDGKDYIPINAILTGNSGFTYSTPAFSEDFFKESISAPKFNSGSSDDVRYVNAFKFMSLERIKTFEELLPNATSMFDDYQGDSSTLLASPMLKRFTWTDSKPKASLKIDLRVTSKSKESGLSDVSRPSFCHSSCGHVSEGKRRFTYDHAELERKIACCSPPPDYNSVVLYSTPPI
Description: as §1

[9] = system: GM-CSF signaling (JAK2/JAK2), Stat5 phosphorylation in hPBMCs; experiment: cells; settings: Homo sapiens, 0.25 h, read-out: IC50, GM-CSF cytokine signaling (JAK2/JAK2)
Description: (§2) hPBMCs (3 × 10^6 cells/tube) were incubated with a test compound for 30 min at 37 °C, and then treated with IL-2 (100 ng/mL), IL-6 (100 ng/mL), IL-23 (100 ng/mL), IFN-α (100 ng/mL), or GM-CSF (1 ng/mL) for an additional 15 min. To terminate the stimulation, the cells were fixed with Fixation Buffer (BD Biosciences) for 10 min at 37 °C. The fixed cells were incubated with Perm Buffer II (BD Biosciences) for 30 min on ice and then incubated with fluorochrome-labeled anti-CD3, anti-CD4, or anti-phospho-Stat antibodies for 30 min at room temperature. The cytokine-induced Stat phosphorylation was analyzed and quantified using a Cytomics FC500 (Beckman Coulter Inc., Brea, CA). In the case of IL-23 stimulation, hPBMCs were precultured with 10 μg/mL phytohemagglutinin (PHA)-M (Sigma-Aldrich Co.) for 3 days to enhance their response to IL-23.
(§3) The phosphorylation levels of Stat5 (IL-2 and GM-CSF), Stat3 (IL-6 and IL-23), or Stat1 (IFN-α) in CD3^+CD4^+ cells (IL-2, IL-23, and IFN-α) or CD3^-CD4^+ cells (IL-6 and GM-CSF) were analyzed by flow cytometry. Data are presented as percentages of mean fluorescence intensity relative to vehicle (100 %) and non-stimulated control cells (0 %). Values are mean ± SEM. Three independent experiments were performed

[10] = system: IL-2 signaling (JAK1/JAK3), Stat5 phosphorylation in hPBMCs; experiment: cells; settings: Homo sapiens, 0.25 h, read-out: IC50, IL-2 cytokine signaling (JAK1/JAK3)
Description: as §2, §3

[11] = system: IL-23 signaling (JAK2/Tyk2), Stat3 phosphorylation in hPBMCs; experiment: cells; settings: Homo sapiens, 0.25 h, read-out: IC50, IL-23 cytokine signaling (JAK2/Tyk2)
Description: as §2, §3

[12] = system: IL-6 signaling (JAK1/JAK2), Stat3 phosphorylation in hPBMCs; experiment: cells; settings: Homo sapiens, 0.25 h, read-out: IC50, IL-6 cytokine signaling (JAK1/JAK2)
Description: as §2, §3

[13] = system: IFN-α signaling (JAK1/Tyk2), Stat1 phosphorylation in hPBMCs; experiment: cells; settings: Homo sapiens, 0.25 h, read-out: IC50, IFN-α cytokine signaling (JAK1/Tyk2)
Description: as §2, §3

[14] = target: T8, CDK1/cyclinB (Homo sapiens, UniProt P06493); experiment: KinaseProfiler selectivity: CDK1/cyclinB; assay type: biochemical
T8 construct: purchased Millipore Co. Ltd. (KinaseProfiler service)
Description: as §1

[15] = target: T9, IKKβ (Homo sapiens, UniProt O14920); experiment: KinaseProfiler selectivity: IKKβ; assay type: biochemical
T9 construct: purchased Millipore Co. Ltd. (KinaseProfiler service)
Description: as §1

[16] = target: T10, PKA (Homo sapiens, UniProt P17612); experiment: KinaseProfiler selectivity: PKA; assay type: biochemical
T10 construct: purchased Millipore Co. Ltd. (KinaseProfiler service)
Description: as §1

[17] = target: T11, Aurora-A (Homo sapiens, UniProt O14965); experiment: KinaseProfiler selectivity: Aurora-A; assay type: biochemical
T11 construct: purchased Millipore Co. Ltd. (KinaseProfiler service)
T11 sequence (O14965 whole entry): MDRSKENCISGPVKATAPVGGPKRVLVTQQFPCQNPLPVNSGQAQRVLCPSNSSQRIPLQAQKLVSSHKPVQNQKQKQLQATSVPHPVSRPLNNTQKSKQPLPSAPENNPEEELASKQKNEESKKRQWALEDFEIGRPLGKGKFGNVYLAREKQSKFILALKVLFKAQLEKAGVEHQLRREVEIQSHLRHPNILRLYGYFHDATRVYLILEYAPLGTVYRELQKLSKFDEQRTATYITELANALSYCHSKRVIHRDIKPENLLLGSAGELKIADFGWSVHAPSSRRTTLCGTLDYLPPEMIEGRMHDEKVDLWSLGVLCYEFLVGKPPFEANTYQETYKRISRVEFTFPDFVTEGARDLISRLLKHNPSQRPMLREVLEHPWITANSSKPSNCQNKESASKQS
Description: as §1

[18] = target: T12, Flt3 (Homo sapiens, UniProt P36888); experiment: KinaseProfiler selectivity: Flt3; assay type: biochemical
T12 construct: purchased Millipore Co. Ltd. (KinaseProfiler service)
Description: as §1

[19] = target: T13, Fyn (Homo sapiens, UniProt P06241); experiment: KinaseProfiler selectivity: Fyn; assay type: biochemical
T13 construct: purchased Millipore Co. Ltd. (KinaseProfiler service)
Description: as §1

[20] = target: T14, MAPKAP-K2 (Homo sapiens, UniProt P49137); experiment: KinaseProfiler selectivity: MAPKAP-K2; assay type: biochemical
T14 construct: purchased Millipore Co. Ltd. (KinaseProfiler service)
Description: as §1

[21] = target: T15, MSK1 (Homo sapiens, UniProt O75582); experiment: KinaseProfiler selectivity: MSK1; assay type: biochemical
T15 construct: purchased Millipore Co. Ltd. (KinaseProfiler service)
Description: as §1

[22] = target: T16, JNK2α2 (Homo sapiens, UniProt P45984); experiment: KinaseProfiler selectivity: JNK2α2; assay type: biochemical
T16 construct: purchased Millipore Co. Ltd. (KinaseProfiler service)
Description: as §1

[23] = system: IL-2-induced IFN-γ production; experiment: IL-2-induced IFN-γ production in mice; assay type: in vivo, DBA/1J mice; settings: Mus musculus, po
Description: DBA/1J mice were dosed once via oral gavage with compounds. At 1 or 6 h after compound administration, the mice were injected intraperitoneally with 2 μg of recombinant mouse IL-2 and 10 μg of biotinylated anti-mouse IFN-γ capture antibody. After 6 h, the mice were euthanized, and blood was collected. Serum IFN-γ was quantified using a Mouse IFN-γ In Vivo Capture Assay Set (BD Biosciences).
After 1 or 6 h, they were injected with IL-2 and anti-mouse IFN-γ capture antibody. At 6 h after the injection, blood samples were collected, and the serum IFN-γ levels were measured.

[24] = target: T17, ROCK-II (Homo sapiens, UniProt O75116); experiment: KinaseProfiler selectivity: ROCK-II; assay type: biochemical
T17 construct: purchased Millipore Co. Ltd. (KinaseProfiler service)
Description: as §1

[25] = target: T18, ZAP-70 (Homo sapiens, UniProt P43403); experiment: KinaseProfiler selectivity: ZAP-70; assay type: biochemical
T18 construct: purchased Millipore Co. Ltd. (KinaseProfiler service)
Description: as §1

[26] = system: human mast cells; settings: Mast cell, read-out: IC50, IL-4 priming of Fcε receptor-dependent TNF-α production in mast cells
Description: The cells were then replated at 1.2 × 10^5 cells/well and cultured with 1 μg/mL anti-IgE for an additional 5 h at 37 °C. The supernatants were collected, and secretion of TNF-α was measured by ELISA.

T1 sequence (Q02763 23-1124): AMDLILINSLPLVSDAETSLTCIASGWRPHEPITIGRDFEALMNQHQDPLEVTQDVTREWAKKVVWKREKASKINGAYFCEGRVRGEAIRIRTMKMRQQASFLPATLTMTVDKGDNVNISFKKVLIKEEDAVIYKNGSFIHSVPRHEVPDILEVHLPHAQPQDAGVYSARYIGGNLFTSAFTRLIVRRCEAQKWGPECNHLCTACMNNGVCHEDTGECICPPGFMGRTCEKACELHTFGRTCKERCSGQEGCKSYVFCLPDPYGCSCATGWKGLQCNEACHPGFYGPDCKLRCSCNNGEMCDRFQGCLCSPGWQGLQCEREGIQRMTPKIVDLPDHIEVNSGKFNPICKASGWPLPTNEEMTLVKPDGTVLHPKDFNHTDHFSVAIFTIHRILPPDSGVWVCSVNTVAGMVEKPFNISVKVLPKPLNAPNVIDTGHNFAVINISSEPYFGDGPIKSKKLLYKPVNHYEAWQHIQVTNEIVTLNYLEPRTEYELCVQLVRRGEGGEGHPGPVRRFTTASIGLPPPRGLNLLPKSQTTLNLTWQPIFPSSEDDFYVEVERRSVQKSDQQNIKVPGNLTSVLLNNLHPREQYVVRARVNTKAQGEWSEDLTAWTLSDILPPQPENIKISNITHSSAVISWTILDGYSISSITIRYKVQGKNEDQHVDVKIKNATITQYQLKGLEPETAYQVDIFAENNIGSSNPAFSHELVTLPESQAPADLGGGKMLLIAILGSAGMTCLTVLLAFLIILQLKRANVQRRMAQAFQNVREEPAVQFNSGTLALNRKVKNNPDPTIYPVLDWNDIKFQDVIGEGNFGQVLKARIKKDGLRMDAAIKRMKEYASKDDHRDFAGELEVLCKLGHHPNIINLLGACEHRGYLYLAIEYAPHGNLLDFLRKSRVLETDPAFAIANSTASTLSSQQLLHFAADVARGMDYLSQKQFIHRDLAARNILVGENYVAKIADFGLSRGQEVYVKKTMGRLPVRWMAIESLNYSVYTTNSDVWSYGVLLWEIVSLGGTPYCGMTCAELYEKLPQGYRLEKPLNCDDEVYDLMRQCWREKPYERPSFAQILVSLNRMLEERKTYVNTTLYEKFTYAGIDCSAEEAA

## C[C@H]1CN(C(=O)CC#N)[C@]12CCN(c1ncnc3[nH]ccc13)C2 [JTE-052]
[1]
  IC50: > 1 µM
[2]
  IC50: > 1 µM
[3]
  IC50: > 1 µM
[4]
  IC50: > 1 µM
[5]
  IC50: > 1 µM
[6]
  IC50: > 1 µM
[7]
  IC50: 0.277 ± 0.146 µM
[8]
  IC50: > 1 µM
[9]
  IC50: 0.304 ± 0.022 µM
[10]
  IC50: 0.04 ± 0.009 µM
[11]
  IC50: 0.084 ± 0.011 µM
[12]
  IC50: 0.033 ± 0.014 µM
[13]
  IC50: 0.018 ± 0.003 µM
[14]
  IC50: > 1 µM
[15]
  IC50: > 1 µM
[16]
  IC50: > 1 µM
[17]
  IC50: > 1 µM
[18]
  IC50: > 1 µM
[19]
  IC50: > 1 µM
[20]
  IC50: > 1 µM
[21]
  IC50: > 1 µM
[22]
  IC50: > 1 µM
[23]; dosed 1 h prior to IL-2 injection
  ED50: 0.24 mg/kg
[23]; dosed 6 h prior to IL-2 injection
  ED50: 1.3 mg/kg
[24]
  IC50: 0.141 µM
[25]
  IC50: > 1 µM
[26]
  IC50: 0.133 ± 0.018 µM
